Values quoted from earlier work, collected in patent US10265547B2, “Internal ultrasound gel” (SmileSonica Inc., priority 2012, dated 2019).

Key:
[1] = average adult of 70 kg
[2] = system: Streptococcus mutans; settings: xylitol in the range of 0.1% to 5%
[3] = system: Streptococcus pneumonia; settings: nasopharyngeal flora, Kontiokari et al. 1995
[4] = system: clostridium butyricum; settings: Makinen and Soderling 1981
[5] = system: lactobacillus bulgaricus; settings: Makinen and Soderling 1981
[6] = system: saccharomyces cerevisiae; settings: Makinen and Soderling 1981
[7] = system: Escherichia coli; settings: Makinen and Soderling 1981
[8] = system: salmonella typhi; settings: Makinen and Soderling 1981

Row | Compound | acceptable daily ingestion intake [1] [mg daily] | reduction of oral bacterial flora [2] | growth inhibition [3] | growth inhibition [4] | growth inhibition [5] | growth inhibition [6] | growth inhibition [7] | growth inhibition [8]
1 | C/C=C/C=C/C(=O)[O-].[K+] [potassium sorbate] | 875 | – | – | – | – | – | – | –
2 | OC[C@@H](O)[C@H](O)[C@@H](O)CO [xylitol] | – | reduce oral bacterial flora | inhibiting the growth | inhibiting the growth | inhibiting the growth | inhibiting the growth | inhibiting the growth | inhibiting the growth
